According to patent US10907219B2, “Compositions and methods for controlling cellular function” (STC.UNM, priority 2014, dated 2021):
“Also recorded” adds a separate entry of the source.

Columns and labels:
[1] = Photo-cleavage (uncaging) of caged ABA (HPLC); assay type: physicochemical; details: for formation of 2-trans ABA isomer on irradiation: 365 nm photo-cleavage condition; for photo-cleavage by 365 nm light / photo-cleavage by 405 nm light: 10 μM in DMSO
Description: HPLC analysis: Reversed-phase HPLC was performed on an ACCLAIM 120 (4.6×100 mm) C18 column (Thermo Fisher Scientific, Waltham, Mass.) with an ULTIMATE 3000 pump system, including a Variable Wavelength Detector 3100, Degasser 1210, and Autosampler SPS 3000 (Thermo Fisher Scientific, Waltham, Mass.). A mixture of water and acetonitrile containing 0.1% TFA was used as the eluent. Absorbance at 250 nm was used to monitor the elution of the molecules. The method used an increase in acetonitrile from 5% to 95% over 15 minutes to elute the molecules at a flow rate of 0.7 mL/min. The peaks for the molecules were integrated by using Chromeleon software (Thermo Fisher Scientific, Waltham, Mass.). The molar absorptivity of both free and caged ABA at 250 nm were measured, which was used to calculate the concentration of each species from the intensity of absorbance at 250 nm. The relative concentration of each compound was used to calculate the percent concentration of free ABA relative to the concentration of total ABA species (both caged and uncaged).
Photo-irradiation: Irradiation at 365 nm was performed with an Axio Observer (Carl Zeiss AG, Oberkochen, Germany) microscope with an HBO103 W/2 mercury arc lamp (Carl Zeiss AG, Oberkochen, Germany). Irradiation was performed by using a DAPI filter (Carl Zeiss AG, Oberkochen, Germany), set with peak excitation at 365 nm (power density: 23 mW cm^2) and a spectral width of 50 nm. No objective lens was used for whole-well irradiation, which created an area of illumination that nearly completely covered one well of a 24-well plate. Light was transmitted through the bottom of the well of polystyrene plate. Irradiation at 405 nm was performed by using an adjustable focus violet purple laser pointer (LazerPoint SKU 0733579), with an excitation wavelength of 405 nm and 1000 mW intensity positioned 8 cm above the bottom of either a 96-well or 24-well plate and irradiated through the polystyrene lid. All samples for HPLC analysis were irradiated in DMSO to prevent evaporation of solvent and changes in sample concentration. Irradiation of cell cultures was performed in 24-well plates containing culture medium (500 μL).

[2] = test system: CHO cells transfected with ABA-inducible luciferase constructs; assay: ABA-inducible luciferase assay; assay type: cell-based; details: for stability in cell culture: 12 or 24 h, luciferase assay
Description: The cellular stability of ABA-DMNB was explored further using a more sensitive and quantitative luciferase assay system, which employs an inducible luciferase construct (FIG. 21A). CHO cells were transfected with the ABA-inducible luciferase constructs for 24 hours and then 10 μM of ABA-DMNB was added and incubated in dark for 12 or 24 hours. Cells were then harvested and analyzed by using the luciferase assay.
Cell culture and transfection: CHO cells and HEK 293T EGFP reporter cells (provided by Dr. Gerald R. Crabtree) were cultured in Dulbecco's modified Eagle's medium (DMEM; GIBCO, Life Technologies, Carlsbad, Calif.) with 10% FBS (Atlanta Biologicals, Inc., Norcross, Ga.), 1×GlutaMAX (GIBCO, Life Technologies, Carlsbad, Calif.), and 1× penicillin/streptomycin (Pen/Strep; GIBCO, Life Technologies, Carlsbad, Calif.). 15,000-50,000 ells were plated in a 24-well or 8-well plate for 24 hours before transfection. DNA constructs (0.1 μg-0.5 μg) were added to 50× (v/w) Opti-MEM (GIBCO, Life Technologies, Carlsbad, Calif.), and then 3× (v/w) PEI (Polysciences, Inc., Warrington, Pa.) was mixed with the DNA. The mixture was incubated for 20 minutes at room temperature before adding it to cell cultures. The cells were grown for one day after transfection before experiments were performed.
Luciferase assay: Cells from 24-well plates were washed with PBS and lysed with Reporter lysis buffer (100 μL; Promega Corp., Madison, Wis.) by incubation and gentle shaking at room temperature for 10 minutes after a freeze/thaw cycle. Cell lysates were centrifuged at 15,000 rpm in an Eppendorf 5424 Centrifuge with lysate used for the luciferase assay (25 μL). Luciferase assay reagent (100 μL, 5 mg luciferin (Gold Biotechnology, Inc., St. Louis, Mo.) and coenzyme A (7 mg; Sigma-Aldrich, St. Louis, Mo.) in Luciferase Assay Buffer (33 mL, 20 mM tricine, 1.07 mM (MgCO3)4Mg(OH)2.5 H2O, 2.67 mM MgSO4, 0.1 mM EDTA, 33.3 mM dithiothreitol, and 0.53 mM ATP in water) was added to lysates. Luciferase assay reagent was added through the auto-injector of a GLOMAX-Multi Detection System (Promega Corp., Madison, Wis.), and the signal was detected by the instrument with a 1.5 s delay and 0.5 s integration time. All experiments were conducted in triplicate.

[3] = test system: myr-ABI and EGFP-PYL-Tiam1 in CHO cells; assay: Light-induced ruffling via Tiam1 membrane localization / Rac1 signaling (fixed cells); assay type: cell-based; details: for percentage of cells displaying ruffling: compared with ABA-DMNB without irradiation or no drug
Description: Next, we examined the induction of ruffle formation through the activation of the Rac1 signaling pathway in order to determine if the light-activated ABA system can be used to regulate a complex biological process. The GTP exchange factor, Tiam1, when presents at the cell membrane, activates Rac1 to initiate a signaling pathway that leads to cytoskeletal remodeling that forms filopodia and/or lamellipodia. To activate Rac1 signaling and induce membrane ruffling, light and ABA-DMNB were used to control membrane localization of Tiam1 (FIG. 23A). A construct encoding a membrane localized ABI (myr-ABI) and one expressing a constitutively active Tiam1 fused to EGFP and PYL were employed for this purpose (FIG. 23A). Following the transfection of CHO cells with both plasmids for 24 hours, 10 μM of ABA-DMNB was added and the treated cell culture was irradiated with 365 nm light from a fluorescent microscope. Cells were then fixed on slides and analyzed under a fluorescence microscope. […] Some background ruffling when overexpressing constitutively active Tiam1 was observed even when no drug was added.
Slide preparation: Cells were grown on glass coverslips in 24-well plates. The coverslips were washed with phosphate-buffered saline (PBS) and fixed with 4% paraformaldehyde (PFA, 300 μL, prepared in PBS) at room temperature for 20 min. The cells were then washed twice with PBS and incubated with 1×DAPI in the dark at the room temperature for 5 min. After a final wash with PBS, the coverslips were mounted on a glass slide with VECTASHIELD (Vector Laboratories, Inc., Burlingame, Calif.) mounting media and allowed to stand for two hours in the dark before imaging.
Statistical analysis of cell population: Cell were categorized as displaying nuclear export of EGFP when the fluorescent intensity of the nucleus was less than 60% of the intensity of the cytoplasm. […] Cells were counted from three separate experiments, with N>50 for each experiment.

Row | formation of isomerized ABA on irradiation ([1]; 405 nm uncaging) | SMILES | formation of 2-trans ABA isomer on irradiation [1] | luciferase expression ([2]; not irradiated, twelve hours after addition) | percentage of cells displaying ruffling ([3]; not irradiated) | photo-cleavage by 365 nm light [1] | photo-cleavage by 405 nm light [1] | irradiation time to complete cleavage ([1]; 405 nm light) [min] | stability in cell culture ([2]; 10 μM, dark) | Rac1 signaling activation/ruffle formation ([3]; 10 μM, 405 nm light irradiation, fixed CHO cells) | irradiation time after which free ABA is regenerated ([1]; 10 μM and 100 μM, 365 nm UV light) [s] | irradiation time to regenerate free ABA ([1]; 100 μM, 365 nm light) [min] | luciferase expression ([2]; 10 μM, dark, 12 hours) | luciferase expression ([2]; 10 μM, dark, 24 hours) | percentage of cells displaying ruffling ([3]; 10 μM, 365 nm irradiation)
1 |  | CC1=CC(=O)CC(C)(C)C1(O)/C=C/C(C)=C\C(=O)O (stereo not drawn) [ABA, abscisic acid, reference compound] | very little 2-trans isomer was produced | induced luciferase expression | higher percentage of ruffled cell; also recorded: greater percentage of cells displaying ruffling |  |  |  |  |  |  |  |  |  | 
2 | isomerized ABA was also produced | CCN(CC)c1ccc2c(COC(=O)/C=C(C)\C=C\[C@@]3(O)C(C)=CC(=O)CC3(C)C)cc(=O)oc2c1 [ABA-DEACM] |  |  |  | cannot be cleaved effectively under 365 nm light; also recorded: cannot be cleaved efficiently by 365 nm light | cleaved rapidly to give ABA within a few minutes | ≤ 4 | stable chemically and in cell culture | Rac1 signaling activation/ruffle formation in cells |  |  |  |  | 
3 |  | COc1cc(COC(=O)/C=C(C)\C=C\[C@@]2(O)C(C)=CC(=O)CC2(C)C)c([N+](=O)[O-])cc1OC [ABA-DMNB] | near equal amount |  |  | rapidly regenerated from the photo-uncaging of ABA-DMNB within a min | cannot efficiently uncage |  | relatively stable under the cell culture condition |  | 120 | ≤ 2 | very little luciferase expression | only a minimal level of luciferase was induced | higher percentage of ruffled cell; also recorded: greater percentage of cells displaying ruffling
